The text below walks through data of ChEMBL document CHEMBL1201862, “PubChem BioAssay data set” (2004).

Calls of active or inactive are those of the source. For most assays here, no stated cut-off is given here; in the data, actives have a measured EC50 and inactives only a lower limit.

Assay [1] deals with H4. Description: Luminescence Cell-Based Dose Response HTS to Identify Activators of 5'UTR Stem-Loop Driven Prion Protein mRNA Translation in H4 Neuroglioblastoma Cells. [Related pubchem assays: 1829 (Project Summary), 1814 (Primary HTS)]. The settings on record: Homo sapiens. Type of assay: functional.
A short description of assay [2]: Luminescence Cell-Based Dose Confirmation to Identify Activators of 5'UTR Stem-Loop Driven Alpha-Synuclein mRNA Translation in H4 Neuroglioblastoma Cells. [Related pubchem assays: 1829 (Project Summary), 1814 (Primary HTS)]. Format: functional.
For assay [3], the target named is Vasopressin V1a receptor (Homo sapiens, UniProt P37288). Description: Fluorescence-based cell-based high throughput dose response screening assay for agonists of the vasopressin 1 receptor (V1R). Type of assay: functional.
Vasopressin V1a receptor, sequence (P37288 whole entry): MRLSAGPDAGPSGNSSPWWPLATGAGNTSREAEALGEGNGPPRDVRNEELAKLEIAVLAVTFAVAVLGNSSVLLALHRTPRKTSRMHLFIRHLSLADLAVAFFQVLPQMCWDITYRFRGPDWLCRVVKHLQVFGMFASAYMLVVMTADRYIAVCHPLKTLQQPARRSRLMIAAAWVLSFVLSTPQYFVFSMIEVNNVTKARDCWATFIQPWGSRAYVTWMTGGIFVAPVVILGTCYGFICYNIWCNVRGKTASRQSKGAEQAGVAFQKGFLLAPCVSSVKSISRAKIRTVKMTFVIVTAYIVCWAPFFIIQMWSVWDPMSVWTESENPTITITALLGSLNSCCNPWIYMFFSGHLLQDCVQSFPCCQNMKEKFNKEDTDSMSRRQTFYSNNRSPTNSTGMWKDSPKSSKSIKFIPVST
Assay [4] can be described thus: Luminescence Cell-Based Dose Response to Identify Activators of 5'UTR Stem-Loop Driven Prion Protein mRNA Translation in H4-C Neuroglioblastoma Cells. [Related pubchem assays: 1829 (Project Summary), 1814 (Primary HTS)]. Type of assay: functional.
Assay [5] addresses Oxytocin receptor (Homo sapiens, UniProt P30559). Description: Counterscreen for vasopressin 1 receptor (V1R) agonists: Fluorescence-based cell-based high throughput dose response assay for agonists of the Oxytocin Receptor (OXTR). [Related pubchem assays: 2435 (Primary screen (OXTR agonists in singlicate)), 434964 (Confirmation screen (V1R agonists in triplicate)), 434969 (Counterscreen (OXTR agonists in …. Format: functional. (In general: Counterscreens check selectivity or assay interference.)

Assay [6] has as its target T1, Heat shock factor protein 1 (Mus musculus, UniProt P38532).
T1 sequence (P38532 whole entry): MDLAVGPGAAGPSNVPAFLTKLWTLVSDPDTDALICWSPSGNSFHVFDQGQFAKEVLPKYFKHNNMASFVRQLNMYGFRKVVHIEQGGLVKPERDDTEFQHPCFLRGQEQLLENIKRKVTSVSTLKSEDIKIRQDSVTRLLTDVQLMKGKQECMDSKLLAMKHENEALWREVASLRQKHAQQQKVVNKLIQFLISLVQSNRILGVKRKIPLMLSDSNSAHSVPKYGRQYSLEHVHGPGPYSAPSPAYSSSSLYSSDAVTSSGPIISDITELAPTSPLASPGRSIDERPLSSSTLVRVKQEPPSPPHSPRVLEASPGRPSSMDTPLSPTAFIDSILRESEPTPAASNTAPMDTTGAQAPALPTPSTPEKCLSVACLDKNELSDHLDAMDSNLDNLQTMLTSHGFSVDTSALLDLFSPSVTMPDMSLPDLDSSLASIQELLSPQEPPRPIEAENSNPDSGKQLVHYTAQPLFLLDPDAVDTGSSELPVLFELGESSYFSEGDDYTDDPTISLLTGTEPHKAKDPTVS
Description: inhibition of MG132-induced HSE-luciferase signal, confirmation, cell-based, NIH3T3, luminescence, dose retest (AID 2382).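 Further: NIH3T3 fibroblasts with HSF1-driven luciferase reporter stressed by proteasome inhibitor MG132; luminescence from HSF1-driven luciferase expression after 8 hours of MG132 stress.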 Type of assay: functional.

The nature of assay [7]: Luminescence Cell-Based Dose Response to Identify Activators of Luciferase Translation or Activity in H4-C Neuroglioblastoma Cells. [Related pubchem assays: 1829 (Project Summary), 1814 (Primary HTS)]. Format: functional.
Assay [8] addresses Neuropeptide Y receptor type 2 (Homo sapiens, UniProt P49146). Format: functional, cell-based.
Assay [9] has as its target Neuropeptide Y receptor type 1 (Homo sapiens, UniProt P25929). Type of assay: functional.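 Further: HEK293 cells with a CNG channel challenged with NPY then isoproterenol; potency as antagonist that reverses NPY suppression of cAMP signal.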
Assay [10] is described as follows: enhancers of respiration in Yfh1-depleted yeast, dose response, Friedreich's ataxia, plus single-dose screen (AID 1465).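 Further: yeast depleted of Yfh1p frataxin homolog grown on glycerol needing respiration; WST-1 tetrazolium dye reduction as measure of cellular dehydrogenase metabolic activity.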 Format: functional.
The target in assay [11] is T2, Mannose-6-phosphate isomerase (Homo sapiens, UniProt P34949).
T2 sequence (P34949 whole entry): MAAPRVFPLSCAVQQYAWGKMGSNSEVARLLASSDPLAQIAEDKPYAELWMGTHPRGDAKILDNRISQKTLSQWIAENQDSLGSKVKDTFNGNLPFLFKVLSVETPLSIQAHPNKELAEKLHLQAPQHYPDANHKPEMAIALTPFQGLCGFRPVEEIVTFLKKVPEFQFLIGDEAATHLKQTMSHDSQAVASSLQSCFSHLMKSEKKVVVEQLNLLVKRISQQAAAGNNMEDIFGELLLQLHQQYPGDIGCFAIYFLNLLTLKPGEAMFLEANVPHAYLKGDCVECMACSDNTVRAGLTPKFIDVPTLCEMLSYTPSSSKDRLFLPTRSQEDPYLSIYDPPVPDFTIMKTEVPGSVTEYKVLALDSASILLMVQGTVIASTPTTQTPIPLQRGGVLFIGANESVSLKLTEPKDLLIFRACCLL
Description: inhibitors of human PMI, primary screen, biochemical, fluorescence intensity, coupled assay (AID 1209).

Assay [12] concerns the target T2, Mannose-6-phosphate isomerase. The experiment in a line: human PMI inhibitors, high substrate, primary screen, biochemical, fluorescence intensity, high mannose 6-phosphate (AID 1220).
The target in assay [13] is T3, Serine/threonine-protein phosphatase (Candida dubliniensis (strain CD36 / CBS 7987 / NCPF 3949 / NRRLY-17841) (Yeast), UniProt B9W6M3).
T3 sequence (B9W6M3 whole entry): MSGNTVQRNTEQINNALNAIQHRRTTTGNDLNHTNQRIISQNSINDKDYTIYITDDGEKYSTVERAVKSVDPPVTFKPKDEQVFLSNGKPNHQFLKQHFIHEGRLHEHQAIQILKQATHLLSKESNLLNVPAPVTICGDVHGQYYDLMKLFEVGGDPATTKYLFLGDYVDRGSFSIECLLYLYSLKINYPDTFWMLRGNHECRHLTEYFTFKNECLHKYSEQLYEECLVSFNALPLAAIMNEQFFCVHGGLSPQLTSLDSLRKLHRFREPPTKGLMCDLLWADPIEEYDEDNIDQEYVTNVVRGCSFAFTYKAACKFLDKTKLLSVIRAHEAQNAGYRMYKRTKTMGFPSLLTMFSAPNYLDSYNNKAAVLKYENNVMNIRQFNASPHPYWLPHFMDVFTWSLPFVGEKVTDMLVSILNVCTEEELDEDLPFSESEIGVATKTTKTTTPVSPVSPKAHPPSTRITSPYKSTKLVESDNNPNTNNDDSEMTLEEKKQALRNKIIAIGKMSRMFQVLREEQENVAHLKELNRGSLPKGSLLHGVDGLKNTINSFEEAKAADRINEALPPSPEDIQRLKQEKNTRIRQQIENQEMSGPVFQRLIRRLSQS
Description: calcineurin pathway inhibitors in yeast reporter, dose response, S. cerevisiae, CDRE-lacZ, luminescence, secondary (AID 2388).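 Further: yeast reporter cells carrying a calcineurin-responsive lacZ construct stimulated with calcium chloride; luminescent beta-galactosidase reporter signal in whole cells rather than isolated phosphatase activity; potency for inhibition where a drop in reporter signal means calcineurin blockade.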 Format: functional, cell-based.

Assay [14] concerns the target T4, Coagulation factor XII (Homo sapiens, UniProt P00748).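 Further: activated factor XIIa alpha cleaving a fluorogenic AMC peptide substrate; inhibitor potency from loss of enzyme activity.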
T4 sequence (P00748 whole entry): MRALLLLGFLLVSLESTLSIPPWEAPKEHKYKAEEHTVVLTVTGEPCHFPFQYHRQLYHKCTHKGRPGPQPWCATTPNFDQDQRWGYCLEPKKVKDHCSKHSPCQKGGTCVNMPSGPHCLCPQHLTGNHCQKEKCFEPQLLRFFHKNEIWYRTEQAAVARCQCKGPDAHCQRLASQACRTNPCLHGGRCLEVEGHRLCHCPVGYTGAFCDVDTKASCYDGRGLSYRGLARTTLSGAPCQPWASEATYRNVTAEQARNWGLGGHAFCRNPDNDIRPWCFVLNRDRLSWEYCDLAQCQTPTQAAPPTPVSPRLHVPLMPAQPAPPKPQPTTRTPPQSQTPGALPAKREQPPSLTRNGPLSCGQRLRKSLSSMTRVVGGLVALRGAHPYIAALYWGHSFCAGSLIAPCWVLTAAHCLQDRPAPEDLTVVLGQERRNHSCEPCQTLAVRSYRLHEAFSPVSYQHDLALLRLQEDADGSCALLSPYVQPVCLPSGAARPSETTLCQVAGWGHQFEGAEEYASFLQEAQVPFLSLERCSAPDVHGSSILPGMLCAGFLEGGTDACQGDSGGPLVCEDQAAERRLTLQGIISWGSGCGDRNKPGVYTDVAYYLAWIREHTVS
Type of assay: functional.

Assay [15] can be described thus: cells. Type of assay: functional, cell-based.
Assay [16] is described as follows: C. albicans growth with fluconazole, confirmation, fluorescence, retest (AID 2467). Format: functional, cell-based.
Assay [17] in a line: cells. Type of assay: functional, cell-based. This is another data set of the same source.
Assay [18] addresses ATP-dependent molecular chaperone HSP82 (Candida albicans (strain WO-1) (Yeast), UniProt C4YTQ8). The experiment in a line: loss of DOC-induced GRE-beta-galactosidase reporter signal, dose response, Hsp90 inhibitor project, S. cerevisiae, luminescence (AID 2400).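 Further: beta-galactosidase luminescence from glucocorticoid response element reporter as proxy for Hsp90 function; inhibitor potency where signal loss means Hsp90 inhibition.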 Format: functional, cell-based.
Assay [19] can be described thus: NIH-3T3 fibroblast cytotoxicity, dose response, cytotoxicity control, cell-based, fluorescence, Alamar Blue, secondary assay (AID 2327).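 Further: NIH-3T3 mouse fibroblasts cultured with fluconazole at 8 µg/mL.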 Type of assay: functional. Background: Alamar Blue is a resazurin reagent that responds to reducing activity.
The target in assay [20] is Induced myeloid leukemia cell differentiation protein Mcl-1 (Homo sapiens, UniProt Q07820). Format: functional.
Induced myeloid leukemia cell differentiation protein Mcl-1, sequence (Q07820 whole entry): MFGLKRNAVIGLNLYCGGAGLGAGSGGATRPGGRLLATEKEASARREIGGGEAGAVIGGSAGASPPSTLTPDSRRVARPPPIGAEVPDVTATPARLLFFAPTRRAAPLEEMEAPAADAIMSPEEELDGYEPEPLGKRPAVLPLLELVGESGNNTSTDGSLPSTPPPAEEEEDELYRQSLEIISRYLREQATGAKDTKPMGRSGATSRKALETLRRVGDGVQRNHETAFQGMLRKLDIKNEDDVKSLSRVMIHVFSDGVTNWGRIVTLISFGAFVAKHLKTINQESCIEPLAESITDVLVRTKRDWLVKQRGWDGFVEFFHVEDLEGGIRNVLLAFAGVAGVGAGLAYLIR
For assay [21], the system named is HeLa. The experiment in a line: Cytotoxicity counterscreen assay for transcriptional activators of heat shock protein 70 (Hsp70). [Related pubchem assays: 1203, 1252 ]. The following applies: Homo sapiens. Type of assay: functional.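 Further: cells exposed to compound for 16 hours before readout.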

Neuropeptide Y receptor type 2, sequence (P49146 whole entry): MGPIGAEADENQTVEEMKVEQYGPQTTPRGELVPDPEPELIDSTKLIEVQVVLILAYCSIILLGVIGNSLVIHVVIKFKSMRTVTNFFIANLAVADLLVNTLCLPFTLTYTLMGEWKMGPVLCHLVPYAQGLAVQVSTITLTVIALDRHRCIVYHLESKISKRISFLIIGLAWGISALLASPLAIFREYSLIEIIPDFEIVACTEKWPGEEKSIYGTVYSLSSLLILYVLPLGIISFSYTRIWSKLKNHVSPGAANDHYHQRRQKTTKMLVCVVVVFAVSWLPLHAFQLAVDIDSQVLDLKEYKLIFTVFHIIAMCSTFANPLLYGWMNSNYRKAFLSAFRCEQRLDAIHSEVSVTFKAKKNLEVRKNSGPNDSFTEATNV
Neuropeptide Y receptor type 1, sequence (P25929 whole entry): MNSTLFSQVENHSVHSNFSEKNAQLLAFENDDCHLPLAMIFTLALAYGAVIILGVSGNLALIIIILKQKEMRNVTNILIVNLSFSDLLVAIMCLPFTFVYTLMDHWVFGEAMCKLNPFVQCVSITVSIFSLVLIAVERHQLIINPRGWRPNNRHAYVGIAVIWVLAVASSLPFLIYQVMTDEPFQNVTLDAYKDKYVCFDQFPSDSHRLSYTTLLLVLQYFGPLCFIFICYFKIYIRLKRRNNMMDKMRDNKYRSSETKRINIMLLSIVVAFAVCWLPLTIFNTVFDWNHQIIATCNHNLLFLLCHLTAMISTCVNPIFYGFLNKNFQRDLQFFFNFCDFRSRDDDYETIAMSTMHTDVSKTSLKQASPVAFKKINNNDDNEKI
ATP-dependent molecular chaperone HSP82, sequence (C4YTQ8 whole entry): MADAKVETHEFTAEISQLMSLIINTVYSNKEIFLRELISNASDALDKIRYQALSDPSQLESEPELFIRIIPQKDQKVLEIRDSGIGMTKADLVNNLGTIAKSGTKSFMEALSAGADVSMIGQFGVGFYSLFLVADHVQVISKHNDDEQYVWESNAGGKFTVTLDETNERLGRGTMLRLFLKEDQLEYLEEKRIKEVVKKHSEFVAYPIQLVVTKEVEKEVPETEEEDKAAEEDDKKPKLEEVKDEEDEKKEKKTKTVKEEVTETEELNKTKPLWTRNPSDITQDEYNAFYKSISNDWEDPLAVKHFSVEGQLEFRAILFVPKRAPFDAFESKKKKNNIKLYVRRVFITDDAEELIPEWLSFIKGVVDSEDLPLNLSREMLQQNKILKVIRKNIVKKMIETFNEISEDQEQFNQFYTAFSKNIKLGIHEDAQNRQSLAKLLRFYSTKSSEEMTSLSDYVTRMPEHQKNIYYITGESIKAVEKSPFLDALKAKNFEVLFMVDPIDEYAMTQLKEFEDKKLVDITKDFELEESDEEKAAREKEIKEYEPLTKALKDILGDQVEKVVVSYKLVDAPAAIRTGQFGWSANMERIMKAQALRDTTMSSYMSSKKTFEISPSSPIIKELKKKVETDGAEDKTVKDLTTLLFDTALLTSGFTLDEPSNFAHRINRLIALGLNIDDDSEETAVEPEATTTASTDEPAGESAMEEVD
Oxytocin receptor, sequence (P30559 whole entry): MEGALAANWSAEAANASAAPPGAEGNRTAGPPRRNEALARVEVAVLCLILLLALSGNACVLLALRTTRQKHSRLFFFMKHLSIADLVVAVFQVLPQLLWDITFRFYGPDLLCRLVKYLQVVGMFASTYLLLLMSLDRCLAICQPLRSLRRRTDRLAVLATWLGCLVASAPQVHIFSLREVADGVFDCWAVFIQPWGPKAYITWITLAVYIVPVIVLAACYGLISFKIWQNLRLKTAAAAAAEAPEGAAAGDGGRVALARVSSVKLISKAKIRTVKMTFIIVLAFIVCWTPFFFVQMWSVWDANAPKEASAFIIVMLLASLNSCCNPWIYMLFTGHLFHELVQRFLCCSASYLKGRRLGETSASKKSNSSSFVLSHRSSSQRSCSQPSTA

In the case of `CCN1C(=S)SC(=O)C1=C1C=C(C)N(Cc2ccco2)C(C)=C1`, the EC50 (in general, the concentration at which the effect is half-maximal) was < 0.1 µM (active) in [1]; 0.287 µM (active) in assay [2]; 10.5 µM (not active) in assay [3]; 0.313 µM (active) in assay [4]; 16.7 µM (not active) in assay [5]; > 195 µM (not active) in assay [6]. Moreover, in assay [7], the concentration for a half-maximal effect (EC50) is 0.263 µM (active).
With `CN1CCC(Oc2ccccc2Sc2ccccc2)CC1`, the IC50 (usually the concentration needed to halve the response being measured) in [8] is given as 17.5 µM (not active); in [9], 13.6 µM (not active).
In the case of `O=C(N/N=C/c1ccc(O)c(O)c1O)/C(=C/c1ccc([N+](=O)[O-])cc1)NC(=O)c1ccccc1`, the concentration giving a half-maximal response (EC50) in assay [10] is > 100 µM (active); in [13] it was > 180 µM (inactive); in assay [15], > 350 µM (not active); in assay [16] it was 0.587 µM (active); in assay [17] it was > 350 µM (not active); in assay [18], > 160 µM (inactive). In assay [19], the EC50 was > 160 µM (inactive). Further, the IC50 was > 50 µM (not active) in assay [11], > 50 µM (not active) in assay [12], > 50 µM (inactive) in assay [14] and 19.3 µM (active) in assay [20].
In the case of `CN(Cc1ccco1)C(=O)Cn1nc(-c2ccc(Cl)cc2)ccc1=O`, the CC50 – broadly, the concentration that lowers cell viability or growth by half – in assay [21] is listed as > 99 µM (not active).
